One assay relates to HIV-1. Nature of the assay: Antiviral EC50 in HIV-infected T-cell lines (CPE inhibition / susceptibility assays). The class given is cell-based. To be noted: Human immunodeficiency virus 1, T-cell. On the procedure: T-cell lines, CEM-SS, and MT-2, and viruses HIV-1 RF and HIV-1 NL4-3 (pNL4-3) were obtained from the National Institutes of Health (AIDS Research and Reference Reagent Program, Bethesda, MD).
The ability of compounds to protect cells against HIV infection was measured by the […] dye reduction method, essentially as described (See Pauwels, R. Balzarini, J. Baba, M. Snoeck, R. Schols, D. Herdewijn, P. Desmyter, J. and De Clercq, E. 1988, “Rapid and automated tetrazolium-based colorimetric assay for the detection of anti-HIV compounds,”. J Virol. Methods., 20: 309-321 and Weislow, O. S. Kiser, R. Fine, D. L. Bader, J. Shoemaker, R. H. and Boyd, M. R. 1989. “New soluble-formazan assay for HIV-1 cytopathic effects: application to high-flux screening of synthetic and natural products for AIDS-antiviral activity”. J. Natl. Cancer Inst. 81:577-586). Subject cells were infected with test virus at an moi of 0.025 to 0.819 or mock infected with medium only and added at 2×10^4 cells per well into 96 well plates containing half-log dilutions of test compounds. Six days later, 50 μl of XTT (1 mg/ml XTT tetrazolium, […] phenazine methosulfate) was added to the wells and the plate was reincubated for four hours. Viability, as determined by the amount of XTT formazan produced, was quantified spectrophotometrically by absorbance at 450 nm. Data from CPE assays were expressed as the percent of formazan produced in compound-treated cells compared to formazan produced in wells of uninfected, compound-free cells. The fifty percent effective concentration (EC50) was calculated as the concentration of compound that effected an increase in the percentage of formazan production in infected, compound-treated cells to 50% of that produced by uninfected, compound-free cells. The 50% cytotoxicity concentration (CC50) was calculated as the concentration of compound that decreased the percentage of formazan produced in uninfected, compound-treated cells to 50% of that produced in uninfected, compound-free cells. The therapeutic index was calculated by dividing the cytotoxicity (CC50) by the antiviral activity (EC50).
Compounds were tested in phenotypic susceptibility assays at Virologic, Inc., (See Petropoulos C. J., Parkin N. T., Limoli K. L., Lie Y. S., Wrin T., Huang W., Tian H., Smith D., Winslow G. A., Capon D J, Whitcomb J M. 2000, “A novel phenotypic drug susceptibility assay for human immunodeficiency virus type 1,” Antimicrob Agents Chemother 44(4):920-928) or using the assay described here. MT-2 cells were infected with either HIV-1 NL4-3 or HIV-1 NL4-3(I84V/L90M) and incubated in the presence of serial 0.5 log dilutions of test compounds. Three days later, culture supernatants were collected and virus production, as determined by p24 ELISA, was assayed. Percent inhibition was calculated as p24 concentration in compound-treated samples as compared to infected, compound-free controls. Inhibition of viral replication is determined by measuring reduction in HIV p24 present in the culture supernatant, using a Beckman-Coulter p24 HIV-1 Ag EIA kit and following the supplied protocol. Absorbance is read on a MRX microplate reader (Dynex Technologies). The EC50 was calculated as the concentration of compound that effected a decrease in the p24 production by infected, compound-treated cells to 50% of that produced by infected, compound-free cells.

The target of a further assay is T1, HIV-1 protease (Human immunodeficiency virus type 1 group M subtype B, UniProt P04585, Q495S).
T1 construct: made in house
Description: HIV-1 Protease RET assay (Ki, resonance energy transfer). The following applies: Q7S mutant HIV-1 protease. In kind it is biochemical. As for the experimental part: Ki's for the inhibitors of HIV-1 protease were determined using a resonance energy transfer (RET) assay. […] This enzyme is first partially purified as inclusion bodies from cell lysate. It is then solublized in 8M urea and passed through a Q-Sepharose column (Pharmacia) for further purification. To refold this protein, samples containing Q7S is dialyzed into 50 mM sodium phosphate pH 7.0, 50 mM NaCl, 10 mM DTT, and 10% glycerol.
The commercially available peptide substrate (Molecular Probes Cat. # H-2930) RE(EDANS)SQNYPIVQK(DABCYL)R is used to assess activity and Ki's. This peptide is cleaved quantitatively by HIV-1 Pr at the Tyr-Pro bond. The EDANS fluorophore absorbs at 340 nm and emits at 490 nm. The reaction is carried out in a 96 well plate in a total volume of 100 µL and is run for 12 minutes at 37C under steady-state conditions with 5 µM substrate and 2 nM active dimer enzyme concentration. The literature value Km for this substrate and enzyme is 103+/−8 μM (See Matayoshi, et al., “Novel Fluorogenic Substrates for Assaying Retroviral Proteases by Resonance Energy Transfer,” Science 247, 954 (1990)). The buffer for this reaction is 0.1M sodium acetate pH 4.8, 1M NaCl, 1 mM EDTA, 5 mM dithiothreitol, 10% dimethyl sulfoxide and 1 mg/ml bovine serum albumin. Inhibition curves are fit using the Morrison tight binding equation.

Where [1] appears, read: read-out: EC50 (wt) (nm), wt virus.
The mark [2] stands for this setting: read-out: Ave. EC50, average, unit inferred.

Like-named read-outs stand apart in the source and are kept apart here.

25 compounds from patent publication US20050124683A1, “HIV protease inhibitors, compositions containing the same, their pharmaceutical uses and materials for their synthesis” (priority 2003, published 2005) can be followed below.

Take `Cc1cc(O)c(C)c(C(=O)N[C@@H](Cc2ccccc2)[C@H](O)C(=O)N2CC(F)(F)C(C)(C)[C@H]2C(=O)NCc2ccncc2C)c1`: the EC50 in the assay on HIV-1 (setting [1]) turned out to be 34 nM. In addition, the Ki at HIV-1 protease (read-out: Ki (nm)) is below 0.1 nM. As for `Cc1cc(O)c(C)c(C(=O)N[C@@H](Cc2cccc(F)c2)[C@H](O)C(=O)N2CC(F)(F)C(C)(C)[C@H]2C(=O)NCC(F)(F)F)c1`, the EC50 in the assay on HIV-1 (setting [1]) amounted to 14 nM. For the same compound, the Ki at HIV-1 protease (read-out: Ki (nm)) is below 0.1 nM. As for `C=CCNC(=O)[C@H]1N(C(=O)[C@@H](O)[C@H](Cc2cccc(F)c2)NC(=O)c2cc(C)cc(O)c2C)CC(F)(F)C1(C)C`, the EC50 in the assay on HIV-1 (setting [1]) was 25 nM. Further, at HIV-1 protease (read-out: Ki (nm)), the Ki is below 0.1 nM. In the case of `C=CCNC(=O)[C@H]1N(C(=O)[C@@H](O)[C@H](Cc2cccc(C(F)(F)F)c2)NC(=O)c2cccc(O)c2C)CC(F)(F)C1(C)C`, the EC50 in the assay on HIV-1 (setting [1]) stood at 42 nM. Also, at HIV-1 protease (read-out: Ki (nm)), the Ki is below 0.1 nM.

Regarding `Cc1cc(O)c(C)c(C(=O)N[C@@H](Cc2ccccc2)[C@H](O)C(=O)N2CC(F)(F)C(C)(C)[C@H]2C(=O)NCC(F)(F)F)c1` [Example D16, (S)-4,4-Difluoro-1-[(2S,3S)-2-hydroxy-3-(3-hydroxy-2,5-dimethyl-benzoylamino)-4-phenyl-butyryl]-3,3-dimethyl-pyrrolidine-2-carboxylic acid (2,2,2-trifluoro-ethyl)-amide], the EC50 with HIV-1 (setting [2]) was found to be 18 nM. Besides, the Ki at HIV-1 protease (average, read-out: Ave. Ki) is below 0.1 nM. For the compound `CC(C)CNC(=O)[C@H]1N(C(=O)[C@@H](O)[C@H](Cc2ccccc2)NC(=O)c2cccc3c2CCN3)CC(F)(F)C1(C)C`, the EC50 in the assay with HIV-1 (setting [1]) is 35 nM. For the same compound, the inhibition constant Ki on HIV-1 protease (read-out: Ki (nm)) is below 0.1 nM.

In the case of `Cc1cc(O)c(C)c(C(=O)N[C@@H](Cc2cccc(F)c2)[C@H](O)C(=O)N2CC(F)(F)C(C)(C)[C@H]2C(=O)NCc2ccccc2F)c1`, the EC50 with HIV-1 (setting [1]) is 6.7 nM. Further, the Ki at HIV-1 protease (read-out: Ki (nm)) is below 0.1 nM. Regarding `CCC(C)NC(=O)[C@H]1N(C(=O)[C@@H](O)[C@H](Cc2ccccc2)NC(=O)c2cccc(O)c2C)CC(F)(F)C1(C)C` (stereo partly drawn), the EC50 in the assay on HIV-1 (setting [1]) was 31 nM. For the same compound, on HIV-1 protease (read-out: Ki (nm)), the Ki was below 0.1 nM. With `CC[C@H](C)CNC(=O)[C@H]1N(C(=O)[C@@H](O)[C@H](Cc2ccccc2)NC(=O)c2cccc(O)c2C)CC(F)(F)C1(C)C` [Example D18, (S)-4,4-Difluoro-1-[(2S,3S)-2-hydroxy-3-(3-hydroxy-2-methyl-benzoylamino)-4-phenyl-butyryl]-3,3-dimethyl-pyrrolidine-2-carboxylic acid ((2S)-2-methyl-butyl)-amide], in the assay on HIV-1 (setting [2]), the EC50 was 10 nM. The Ki on HIV-1 protease (average, read-out: Ave. Ki) was below 0.1 nM. For `Cc1c(O)cccc1C(=O)N[C@@H](Cc1ccccc1)[C@H](O)C(=O)N1COC(C)(C)[C@H]1C(=O)NC1CCc2ccccc21` (stereo partly drawn), the EC50 in the assay on HIV-1 (setting [1]) worked out at 33 nM. The Ki at HIV-1 protease (read-out: Ki (nm)) is below 0.1 nM.

`COC[C@H](C)NC(=O)[C@H]1N(C(=O)[C@@H](O)[C@H](Cc2cccc(F)c2)NC(=O)c2cccc(O)c2C)CC(F)(F)C1(C)C`: in the assay on HIV-1 (setting [1]), the EC50 amounted to 100 nM. Besides, at HIV-1 protease (read-out: Ki (nm)), the Ki is below 0.1 nM.

As to `C=CCNC(=O)C1N(C(=O)[C@@H](O)[C@H](Cc2cccc(F)c2)NC(=O)c2cccc(O)c2C)CC(F)(F)C1(C)C` (stereo partly drawn) [drawing 101], the EC50 in the assay with HIV-1 (setting [1]) is 16 nM. The Ki on HIV-1 protease (read-out: Ki (nm)) was below 0.1 nM. Taken in the same sequence, the figures for `Cc1ccc(O)c(C)c1C(=O)N[C@@H](Cc1ccccc1)[C@H](O)C(=O)N1CC(F)(F)C(C)(C)[C@H]1C(=O)NCC(C)C` were 44 nM and below 0.1 nM.

Consider `Cc1cc(O)c(C)c(C(=O)N[C@@H](Cc2ccccc2)[C@H](O)C(=O)N2CC(F)(F)C(C)(C)[C@H]2C(=O)NCC(C)C)c1` [Example D15, (S)-4,4-Difluoro-1-1-[(2S,3S)-2-hydroxy-3-(3-hydroxy-2,5-dimethyl-benzoylamino)-4-phenyl-butyryl]-3,3-dimethyl-pyrrolidine-2-carboxylic acid isobutyl-amide], for which, in the assay on HIV-1 (setting [2]), the EC50 came to 11 nM. As for `C=CCNC(=O)C1N(C(=O)[C@@H](O)[C@H](Cc2cccc(F)c2)NC(=O)c2cccc(O)c2C)CC(F)(F)C1(C)C` (stereo partly drawn) [Example D10, (R)-3-((2S,3R)-4,4-Difluoro-1-[4-(3-fluoro-phenyl)-2-hydroxy-3-(3-hydroxy-2-methyl-benzoylamino)-butyryl])-3,3-dimethyl-pyrrolidine-2-carboxylic acid allylamide], in the assay with HIV-1 (setting [2]), the EC50 was determined as 16 nM. Also, the Ki at HIV-1 protease (average, read-out: Ave. Ki) was below 0.1 nM. For the compound `Cc1cc(O)c(C)c(C(=O)N[C@@H](Cc2ccccc2)[C@H](O)C(=O)N2COC(C)(C)[C@H]2C(=O)NC2CCc3ccccc32)c1` (stereo partly drawn), in the assay with HIV-1 (setting [1]), the EC50 stood at 61 nM. Also, at HIV-1 protease (read-out: Ki (nm)), the Ki is below 0.1 nM.

`C=CCNC(=O)[C@H]1N(C(=O)[C@@H](O)[C@H](Cc2ccccc2)NC(=O)c2cccc3c2CCN3)CC(F)(F)C1(C)C`: the EC50 in the assay with HIV-1 (setting [1]) was 16 nM. Also, the Ki on HIV-1 protease (read-out: Ki (nm)) was below 0.1 nM.

As for `Cc1c(O)cccc1C(=O)N[C@@H](Cc1ccccc1)[C@H](O)C(=O)N1CC(F)(F)C(C)(C)[C@H]1C(=O)NCC(C)(C)C`, in the assay on HIV-1 (setting [1]), the EC50 was 4.7 nM. For the same compound, on HIV-1 protease (read-out: Ki (nm)), the Ki is below 0.1 nM. On the same counts, the results for `CCC(C)NC(=O)C1N(C(=O)C(O)C(Cc2ccccc2)NC(=O)c2cc(C)cc(O)c2C)CC(F)(F)C1(C)C` (stereo not drawn) are 16 nM and below 0.1 nM.

With `CCNC(=O)[C@H]1N(C(=O)[C@@H](O)[C@H](Cc2ccccc2)NC(=O)c2cc(C)cc(O)c2C)CC(F)(F)C1(C)C` [drawing 141], in the assay on HIV-1 (setting [1]), the EC50 was 37 nM. For the same compound, the Ki on HIV-1 protease (read-out: Ki (nm)) is below 0.1 nM. For the compound `Cc1c(O)cccc1C(=O)N[C@@H](Cc1ccccc1)[C@H](O)C(=O)N1CC(F)(F)C(C)(C)[C@H]1C(=O)NCc1ccccc1F`, the EC50 in the assay with HIV-1 (setting [1]) is 16 nM. The Ki on HIV-1 protease (read-out: Ki (nm)) is below 0.1 nM.

Take `Cc1c(O)cccc1C(=O)N[C@@H](Cc1cccc(F)c1)[C@H](O)C(=O)N1CC(F)(F)C(C)(C)[C@H]1C(=O)NCC(C)C` [Example D11, (S)-4,4-Difluoro-1-[(2S,3S)-4-(3-fluoro-phenyl)-2-hydroxy-3-(3-hydroxy-2-methyl-benzoylamino)-butyryl]-3,3-dimethyl-pyrrolidine-2-carboxylic acid isobutyl-amide]: the EC50 in the assay on HIV-1 (setting [2]) was found to be 13 nM. Further, the Ki at HIV-1 protease (average, read-out: Ave. Ki) is below 0.1 nM. Take `CC[C@H](C)CNC(=O)[C@H]1N(C(=O)[C@@H](O)[C@H](Cc2ccccc2)NC(=O)c2cc(C)cc(O)c2C)CC(F)(F)C1(C)C`: the half-maximal effective concentration (EC50) in the assay on HIV-1 (setting [1]) is 7.5 nM. Moreover, the Ki at HIV-1 protease (read-out: Ki (nm)) is below 0.1 nM.

On to `Cc1cc(O)c(C)c(C(=O)N[C@@H](Cc2ccccc2)[C@H](O)C(=O)N2CC(F)(F)C(C)(C)C2C(=O)NCC(C)C)c1` (stereo partly drawn), for which the EC50 in the assay on HIV-1 (setting [1]) was 31 nM. Besides, the Ki on HIV-1 protease (read-out: Ki (nm)) is below 0.1 nM. As for `CCCNC(=O)[C@H]1N(C(=O)[C@@H](O)[C@H](Cc2ccccc2)NC(=O)c2cc(C)cc(O)c2C)CC(F)(F)C1(C)C` [Example D14, (S)-4,4-Difluoro-1-1-[(2S,3S)-2-hydroxy-3-(3-hydroxy-2,5-dimethyl-benzoylamino)-4-phenyl-butyryl]-3,3-dimethyl-pyrrolidine-2-carboxylic acid propylamide], the EC50 in the assay with HIV-1 (setting [2]) amounted to 9 nM.
